Earlier results as cited in US7947467B2, “Methods for monitoring pathological conditions in a subject” (Common Sense Ltd., priority 2001, dated 2011).

conditions: in aqueous solution

Row | Compound | pKa
1 | Nitrazine Yellow | 6.6

conditions: not given

Row | Compound | aqueous pH transition range
2 | Cc1cc(O)ccc1C1(c2ccc(O)cc2C)OS(=O)(=O)c2ccccc21 [m-Cresol purple] | 7.4-9.0
3 | Cc1cc2nc3ccc(N(C)C)cc3nc2cc1N.Cl [Neutral Red] | 6.8-8.0
4 | Cc1cc(O)c(C(C)C)cc1C1(c2cc(C(C)C)c(O)cc2C)OS(=O)(=O)c2ccccc21 [Thymol Blue] | 8.0-9.2
5 | Nitrazine Yellow | 6.0-7.2
6 | Cc1cc(C2(c3cc(C)c(O)c(Br)c3C)OS(=O)(=O)c3ccccc32)c(C)c(Br)c1O [Bromoxylenol Blue] | 6.0-7.6
7 | Cc1cc(C2(c3cc(C)c(O)cc3C)OS(=O)(=O)c3ccccc32)c(C)cc1O [Xylenol Blue] | 8.0-9.6
8 | Cc1cc(C2(c3ccc(O)c(C)c3)OS(=O)(=O)c3ccccc32)ccc1O [Cresol Red] | 7.2-8.8
9 | Cc1cc(C2(c3cc(C)c(O)c(Br)c3)OS(=O)(=O)c3ccccc32)cc(Br)c1O [Bromcresol Purple] | 5.2-6.8
10 | O=S1(=O)OC(c2ccc(O)c(Cl)c2)(c2ccc(O)c(Cl)c2)c2ccccc21 [Chlorophenol Red] | 5.2-8.8
11 | O=C1c2ccccc2C(=O)c2c1ccc(O)c2O [Alizarin] | 5.5-6.8
12 | Cc1c(C2(c3cc(C(C)C)c(O)c(Br)c3C)OS(=O)(=O)c3ccccc32)cc(C(C)C)c(O)c1Br [Bromthymol Blue] | 6.0-7.6
